Results: patent publication US8541407B2 (ArQule, Inc., priority 2010, dated 2013)
Where a name gives a salt, the structure may show the parent alone.

Molecular target: AKT1 (Homo sapiens (Human), UniProt P31749)
Experiment: Inactive Akt Alpha Screen Assay
Conditions: non *labeled: Akt Alpha Screen assay; read-out: AKT1 biochemical assay, IC50
Experimental: AKT1 activity was assayed using the GSK3-derived biotinylated peptide substrate, crosstide (biotin-[…]), and AlphaScreen™ (Amplified Luminescent Proximity Homogeneous Assay) technology. AKT1 activation was achieved by the addition of the activating kinases PDK1 and MAPKAPK2, lipid vesicles, and ATP. The extent of peptide phosphorylation was determined using a phospho-AKT substrate antibody and acceptor beads conjugated to Protein A and donor beads conjugated to streptavidin that bind to the biotin on the peptide. Excitation of the donor beads converted ambient oxygen to excited singlet oxygen which, when in close proximity to acceptor beads, reacted with acceptor beads resulting in signal amplification. […] The plates were incubated for 30 minutes at room temperature, and then stopped in the dark by the addition of 10 μL stop/detection mixture prepared in assay buffer containing EDTA, AlphaScreen™ Streptavidin Donor and Protein A Acceptor beads, and phospho-AKT substrate antibody for final concentrations of 10 mM EDTA, 500 ng/well of both AlphaScreen™ Streptavidin Donor beads and Protein A Acceptor beads, and phospho-AKT substrate antibody at a final dilution of 1:350. Assay plates were incubated for 90 minutes at room temperature in the dark, and the plates were read on a Perkin Elmer Envision Multilabel plate reader (excitation wavelength: […], emission wavelength: 570 nm). […] Envision Instrument Settings: • Instrument: Perkin Elmer Envision • Plate: 96 well • Program Name: • Excitation: Ex Top • Mirror: General Dual—Slot 2 • Excitation Filter: CFP430 Ex.

AKT1, sequence (P31749 whole entry): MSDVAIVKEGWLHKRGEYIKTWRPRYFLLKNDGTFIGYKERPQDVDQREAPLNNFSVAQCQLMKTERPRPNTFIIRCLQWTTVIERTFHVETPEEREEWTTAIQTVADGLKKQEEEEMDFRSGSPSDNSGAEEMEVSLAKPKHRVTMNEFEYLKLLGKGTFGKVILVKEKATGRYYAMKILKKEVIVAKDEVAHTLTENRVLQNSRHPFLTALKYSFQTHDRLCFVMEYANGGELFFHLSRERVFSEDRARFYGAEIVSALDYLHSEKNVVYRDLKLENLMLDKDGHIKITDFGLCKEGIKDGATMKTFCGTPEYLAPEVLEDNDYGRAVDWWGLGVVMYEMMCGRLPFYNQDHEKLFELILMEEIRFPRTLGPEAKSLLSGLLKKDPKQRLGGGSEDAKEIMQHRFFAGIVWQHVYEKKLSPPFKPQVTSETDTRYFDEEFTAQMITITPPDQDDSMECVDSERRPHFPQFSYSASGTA

SMILES	IC50 [nM]
Nc1ccc(-c2nnc3n2-c2cccnc2Nc2ccccc2-3)cc1 [Example 11, hydrochloride]	730
CN1c2ccccc2-c2nnc(-c3ccc4ccccc4c3)n2-c2ccccc21 [Example 14, hydrochloride]	67000
O=C(Cc1ccccc1)N1CCN(Cc2ccc(-c3nnc4n3-c3cccnc3Nc3ccccc3-4)cc2)CC1 [Example 140, 1-(4-(4-(9H-benzo[f]pyrido[2,3-b][1,2,4]triazolo[4,3-d][1,4]diazepin-3-yl)benzyl)piperazin-1-yl)-2-phenylethanone]	6000
O=C(C1CCCC1)N1CCN(Cc2ccc(-c3nnc4n3-c3cccnc3Nc3ccccc3-4)cc2)CC1 [Example 133, (4-(4-(9H-benzo[f]pyrido[2,3-b][1,2,4]triazolo[4,3-d][1,4]diazepin-3-yl)benzyl)piperazin-1-yl)(cyclopentyl)methanone]	3400
c1ccc2c(c1)Nc1ncccc1-n1c(-c3ccc(C4CCCN4)cc3)nnc1-2 (stereo not shown) [Example 196, 3-(4-(pyrrolidin-2-yl)phenyl)-9H-benzo[f]pyrido[2,3-b][1,2,4]triazolo[4,3-d][1,4]diazepine]	1100
COc1ccc(NC(=O)NC2CCN(Cc3ccc(-c4nnc5n4-c4cccnc4Nc4ccccc4-5)cc3)CC2)c(C)c1 [Example 184, 1-(1-(4-(9H-benzo[f]pyrido[2,3-b][1,2,4]triazolo[4,3-d][1,4]diazepin-3-yl)benzyl)piperidin-4-yl)-3-(4-methoxy-2-methylphenyl)urea]	840
Cn1ccc(S(=O)(=O)NC2(c3ccc(-c4nnc5n4-c4cccnc4Nc4ccccc4-5)cc3)CCC2)n1 [Example 205, N-(1-(4-(9H-benzo[f]pyrido[2,3-b][1,2,4]triazolo[4,3-d][1,4]diazepin-3-yl)phenyl)cyclobutyl)-1-methyl-1H-pyrazole-3-sulfonamide]	640
O=C(NC1(c2ccc(-c3nnc4n3-c3cccnc3Nc3ccccc3-4)cc2)CCC1)c1ccc(F)cc1 [Example 200, N-(1-(4-(9H-benzo[f]pyrido[2,3-b][1,2,4]triazolo[4,3-d][1,4]diazepin-3-yl)phenyl)cyclobutyl)-4-fluorobenzamide]	610
O=S(=O)(NCc1ccc(-c2nnc3n2-c2cccnc2Nc2ccccc2-3)cc1)c1ccccc1 [Example 101, N-(4-(9H-benzo[f]pyrido[2,3-b][1,2,4]triazolo[4,3-d][1,4]diazepin-3-yl)benzyl)benzenesulfonamide]	140
Nc1cccc(-c2nnc3n2-c2cccnc2Nc2ccccc2-3)c1 [Example 18, hydrochloride]	8100
CCCc1ccccc1NC(=O)NC1CCN(Cc2ccc(-c3nnc4n3-c3cccnc3Nc3ccccc3-4)cc2)CC1 [Example 177, 1-(1-(4-(9H-benzo[f]pyrido[2,3-b][1,2,4]triazolo[4,3-d][1,4]diazepin-3-yl)benzyl)piperidin-4-yl)-3-(2-propylphenyl)urea]	770
NC1(c2ccc(-c3nnc4n3-c3cc(-c5ccccc5)cnc3Nc3ccccc3-4)cc2)CCC1 [Example 230, 1-(4-(6-phenyl-9H-benzo[f]pyrido[2,3-b][1,2,4]triazolo[4,3-d][1,4]diazepin-3-yl)phenyl)cyclobutanamine]	2600
O=C(NCc1ccc(-c2nnc3n2-c2cccnc2Nc2ccccc2-3)cc1)Nc1ccc(F)cc1 [Example 124, 1-(4-(9H-benzo[f]pyrido[2,3-b][1,2,4]triazolo[4,3-d][1,4]diazepin-3-yl)benzyl)-3-(4-fluorophenyl)urea]	1200
c1ccc(-c2nnc3n2-c2cccnc2Nc2ccccc2-3)cc1 [Example 1, 3-phenyl-9H-benzo[f]pyrido[2,3-b][1,2,4]triazolo[4,3-d][1,4]diazepine]	2800
Cc1noc(C)c1S(=O)(=O)NC1CCN(Cc2ccc(-c3nnc4n3-c3cccnc3Nc3ccccc3-4)cc2)CC1 [Example 146, N-(1-(4-(9H-benzo[f]pyrido[2,3-b][1,2,4]triazolo[4,3-d][1,4]diazepin-3-yl)benzyl)piperidin-4-yl)-3,5-dimethylisoxazole-4-sulfonamide]	6800
CC(=O)Nc1ccc(S(=O)(=O)NC2CCN(Cc3ccc(-c4nnc5n4-c4cccnc4Nc4ccccc4-5)cc3)CC2)cc1 [Example 151, N-(4-(N-(1-(4-(9H-benzo[f]pyrido[2,3-b][1,2,4]triazolo[4,3-d][1,4]diazepin-3-yl)benzyl)piperidin-4-yl)sulfamoyl)phenyl)acetamide]	5000
CN(C)c1ccc(-c2nnc3n2-c2ccccc2Nc2ccccc2-3)cc1 [Example 21, 4-(9H-dibenzo[b,f][1,2,4]triazolo[4,3-d][1,4]diazepin-3-yl)-N,N-dimethylaniline]	3500
Cc1nc(C)c(S(=O)(=O)NC2CCN(Cc3ccc(-c4nnc5n4-c4cccnc4Nc4ccccc4-5)cc3)CC2)s1 [Example 153, N-(1-(4-(9H-benzo[f]pyrido[2,3-b][1,2,4]triazolo[4,3-d][1,4]diazepin-3-yl)benzyl)piperidin-4-yl)-2,4-dimethylthiazole-5-sulfonamide]	5300
O=S(=O)(NC1(c2ccc(-c3nnc4n3-c3cccnc3Nc3ccccc3-4)cc2)CCC1)c1ccc(F)cc1 [Example 197, N-(1-(4-(9H-benzo[f]pyrido[2,3-b][1,2,4]triazolo[4,3-d][1,4]diazepin-3-yl)phenyl)cyclobutyl)-4-fluorobenzenesulfonamide]	580
N#Cc1ccc(C(=O)NC2CCN(Cc3ccc(-c4nnc5n4-c4cccnc4Nc4ccccc4-5)cc3)CC2)cc1 [Example 130, N-(1-(4-(9H-benzo[f]pyrido[2,3-b][1,2,4]triazolo[4,3-d][1,4]diazepin-3-yl)benzyl)piperidin-4-yl)-4-cyanobenzamide]	1700
COc1ccc(C)cc1NC(=O)NC1CCN(Cc2ccc(-c3nnc4n3-c3cccnc3Nc3ccccc3-4)cc2)CC1 [Example 166, 1-(1-(4-(9H-benzo[f]pyrido[2,3-b][1,2,4]triazolo[4,3-d][1,4]diazepin-3-yl)benzyl)piperidin-4-yl)-3-(2-methoxy-5-methylphenyl)urea]	720
O=C(Nc1ccc(-c2nnc3n2-c2cccnc2Nc2ccccc2-3)cc1)c1cc(C(F)(F)F)cc(C(F)(F)F)c1 [Example 29, N-(4-(9H-benzo[f]pyrido[2,3-b][1,2,4]triazolo[4,3-d][1,4]diazepin-3-yl)phenyl)-3,5-bis(trifluoromethyl)benzamide]	2500
O=C(c1ccco1)N1CCN(Cc2ccc(-c3nnc4n3-c3cccnc3Nc3ccccc3-4)cc2)CC1 [Example 92, (4-(4-(9H-benzo[f]pyrido[2,3-b][1,2,4]triazolo[4,3-d][1,4]diazepin-3-yl)benzyl)piperazin-1-yl)(furan-2-yl)methanone]	1400
COc1ccc(C(=O)Nc2ccc(-c3nnc4n3-c3cccnc3Nc3ccccc3-4)cc2)cc1 [Example 31, N-(4-(9H-benzo[f]pyrido[2,3-b][1,2,4]triazolo[4,3-d][1,4]diazepin-3-yl)phenyl)-4-methoxybenzamide]	160
CCCNCc1ccc(-c2nnc3n2-c2cccnc2Nc2ccccc2-3)cc1 [Example 87, N-(4-(9H-benzo[f]pyrido[2,3-b][1,2,4]triazolo[4,3-d][1,4]diazepin-3-yl)benzyl)propan-1-amine]	5800
